ChEMBL document CHEMBL1201862, “PubChem BioAssay data set” (2004)
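Results reflect a 48-hour exposure of cells in 96-well plates to compound at five concentrations. The concentration for 50% growth inhibition is given as GI50.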 Calls of active or inactive are those of the source. No stated cut-off is given here; in the data, active = GI50 up to about 1.1 µM and inactive = higher.

Legend:
Test in all cases: NCI tumour cell line growth inhibition, 48 h
[1] = test system: SW-620
[2] = test system: UO-31
[3] = test system: ACHN
[4] = test system: A498
[5] = test system: T47D
[6] = test system: RPMI-8226
[7] = test system: RXF 393
[8] = test system: 786-0
[9] = test system: HOP-92
[10] = test system: TK-10
[11] = test system: MDA-N
[12] = test system: K562
[13] = test system: SF-539
[14] = test system: LOX IMVI
[15] = test system: HCT-15
[16] = test system: SNB-75
[17] = test system: OVCAR-4
[18] = test system: SK-MEL-5
[19] = test system: U-251
[20] = test system: SF-295
[21] = test system: NCI-H226
[22] = test system: A549
[23] = test system: SK-MEL-2
[24] = test system: BT-549
[25] = test system: CCRF-CEM
[26] = test system: IGROV-1
[27] = test system: UACC-257
[28] = test system: HCT-116
[29] = test system: HOP-62
[30] = test system: OVCAR-5
[31] = test system: HL-60
[32] = test system: NCI/ADR-RES
[33] = test system: KM12
[34] = test system: NCI-H460
[35] = test system: DU-145
[36] = test system: Malme-3M
[37] = test system: MDA-MB-231
[38] = test system: SF-268
[39] = test system: Hs-578T
[40] = test system: CAKI-1
[41] = test system: EKVX
[42] = test system: HCC 2998
[43] = test system: NCI-H23
[44] = test system: MOLT-4
[45] = test system: SNB-19
[46] = test system: HT-29
[47] = test system: OVCAR-3
[48] = test system: OVCAR-8
[49] = test system: SR
[50] = test system: SK-MEL-28
[51] = test system: COLO 205
[52] = test system: MDA-MB-435
[53] = test system: SK-OV-3
[54] = test system: UACC-62
[55] = test system: PC-3
[56] = test system: MCF7
[57] = test system: SN12C
[58] = test system: M14
[59] = test system: NCI-H522

With `c1ccc([P+](CCCCCCCC[P+](c2ccccc2)(c2ccccc2)c2ccccc2)(c2ccccc2)c2ccccc2)cc1` the GI50 [1] was 6.81 µM (inactive), the GI50 [2] was > 100 µM (inactive) and the GI50 [3] was 58.9 µM (inactive). For the same molecule, the GI50 [4] was > 31.8 µM (inactive), the GI50 [5] was 5.16 µM (inactive) and the GI50 [6] was 1.87 µM (inactive). For the same molecule, the GI50 [7] was 31.6 µM (inactive), the GI50 [8] was 16.6 µM (inactive) and the GI50 [9] was 3.07 µM (inactive). For the same molecule, the GI50 [10] was 18 µM (inactive), the GI50 [11] was 6.89 µM (inactive) and the GI50 [12] was 3.6 µM (inactive). The GI50 [13] was 2.37 µM (inactive), the GI50 [14] was 4.2 µM (inactive) and the GI50 [15] was over 100 µM. For the same molecule, the GI50 [16] was 0.307 µM (active), the GI50 [17] was 6.04 µM (inactive) and the GI50 [18] was 8.05 µM (inactive). For the same molecule, the GI50 [19] was 0.22 µM (active), the GI50 [20] was 6.53 µM (inactive) and the GI50 [21] was 3.61 µM (inactive). The GI50 [22] was 5.73 µM (inactive), the GI50 [23] was 5.69 µM (inactive) and the GI50 [24] was 1.99 µM (inactive). For the same molecule, the GI50 [25] was 9.23 µM (inactive), the GI50 [26] was 2.4 µM (inactive) and the GI50 [27] was 0.92 µM (active). For the same molecule, the GI50 [28] was 1.87 µM (inactive), the GI50 [29] was 3.64 µM (inactive) and the GI50 [30] was 11.2 µM (inactive). For the same molecule, the GI50 [31] was 1.03 µM (active), the GI50 [32] was > 100 µM (inactive) and the GI50 [33] was 1.52 µM (inactive). For the same molecule, the GI50 [34] was 3.25 µM (inactive), the GI50 [35] was 30 µM (inactive) and the GI50 [36] was 16.4 µM (inactive). For the same molecule, the GI50 [37] was 7.13 µM (inactive), the GI50 [38] was 3.5 µM (inactive) and the GI50 [39] was 2.06 µM (inactive). For the same molecule, the GI50 [40] was > 100 µM (inactive), the GI50 [41] was > 61.5 µM (inactive) and the GI50 [42] was 21.3 µM (inactive). The GI50 [43] was 2.16 µM (inactive), the GI50 [44] was 10.2 µM (inactive) and the GI50 [45] was 0.396 µM (active). The GI50 [46] was 2.04 µM (inactive), the GI50 [47] was 3.83 µM (inactive) and the GI50 [48] was 4.4 µM (inactive). For the same molecule, the GI50 [49] was 23 µM (inactive), the GI50 [50] was 16.9 µM (inactive) and the GI50 [51] was 0.91 µM (active). For the same molecule, the GI50 [52] was 4.92 µM (inactive), the GI50 [53] was 17.3 µM (inactive) and the GI50 [54] was 24.1 µM (inactive). The GI50 [55] was 1.19 µM (inactive), the GI50 [56] was 4.48 µM (inactive) and the GI50 [57] was 3.73 µM (inactive). The GI50 [58] was 35.6 µM (inactive) and the GI50 [59] was 1.8 µM (inactive).

With `NC(=O)[C@H](Cc1ccc(O)cc1)NC1=C(Cl)C(=O)c2c(O)ccc(O)c2C1=O` the GI50 [1] was 1.06 µM (active), the GI50 [2] was 4 µM (inactive) and the GI50 [3] was 2.67 µM (inactive). The GI50 [4] was 4.4 µM (inactive), the GI50 [5] was 2.15 µM (inactive) and the GI50 [6] was 2.25 µM (inactive). The GI50 [7] was 3.52 µM (inactive), the GI50 [8] was 2.02 µM (inactive) and the GI50 [9] was 2.13 µM (inactive). For the same molecule, the GI50 [10] was 2.72 µM (inactive), the GI50 [11] was 1.93 µM (inactive) and the GI50 [12] was 1.45 µM (inactive). The GI50 [13] was 2.17 µM (inactive), the GI50 [14] was 1.61 µM (inactive) and the GI50 [15] was 1.79 µM. For the same molecule, the GI50 [16] was 4.93 µM (inactive), the GI50 [17] was 1.83 µM (inactive) and the GI50 [18] was 1.47 µM (inactive). The GI50 [19] was 2.97 µM (inactive), the GI50 [20] was > 10 µM (inactive) and the GI50 [21] was > 10 µM (inactive). The GI50 [22] was 7.73 µM (inactive), the GI50 [23] was 9.02 µM (inactive) and the GI50 [24] was 2.47 µM (inactive). For the same molecule, the GI50 [25] was 0.241 µM (active), the GI50 [26] was 2.07 µM (inactive) and the GI50 [27] was 3.15 µM (inactive). The GI50 [28] was 1.57 µM (inactive), the GI50 [29] was > 10 µM (inactive) and the GI50 [30] was 8.89 µM (inactive). For the same molecule, the GI50 [31] was 1.04 µM (active), the GI50 [32] was 2.8 µM (inactive) and the GI50 [33] was 2.67 µM (inactive). For the same molecule, the GI50 [34] was 7.76 µM (inactive), the GI50 [35] was 6.53 µM (inactive) and the GI50 [36] was 1.96 µM (inactive). For the same molecule, the GI50 [37] was 2.51 µM (inactive), the GI50 [38] was 3.7 µM (inactive) and the GI50 [39] was 3.71 µM (inactive). The GI50 [40] was 2.37 µM (inactive), the GI50 [41] was > 10 µM (inactive) and the GI50 [42] was 2.37 µM (inactive). For the same molecule, the GI50 [43] was 3.26 µM (inactive), the GI50 [44] was 0.55 µM (active) and the GI50 [45] was > 10 µM (inactive). For the same molecule, the GI50 [46] was 2.38 µM (inactive), the GI50 [47] was 2.14 µM (inactive) and the GI50 [48] was 2.54 µM (inactive). For the same molecule, the GI50 [49] was 1.34 µM (inactive), the GI50 [50] was 2.21 µM (inactive) and the GI50 [51] was 1.5 µM (inactive). The GI50 [52] was 2.07 µM (inactive), the GI50 [53] was > 10 µM (inactive) and the GI50 [54] was 1.85 µM (inactive). The GI50 [55] was 2.24 µM (inactive), the GI50 [56] was 1.32 µM (inactive) and the GI50 [57] was 3.55 µM (inactive). For the same molecule, the GI50 [58] was 3.14 µM (inactive) and the GI50 [59] was 1.63 µM (inactive).
